Laboratory results: patent publication US10138255B2, “Piperazine derivatives as HIV protease inhibitors” (Merck Sharp & Dohme Corp., priority 2014, dated 2018)

These compounds were tested on HIV-1 (H9IIIB strain) (assay: Cell-Based HIV Infection Assay Using a Reporter (MT4-GFP cells)). Details: Human immunodeficiency virus 1, inflection point (IP) of viral growth inhibition; MT4-GFP cells infected with HIV-1 H9IIIB; 50% normal human serum; mean of at least two independent experiments; read-out: Cell Based IP (50% NHS).
Procedure, shortened: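 Inflection point from a 4-parameter curve of % viral growth inhibition, normalised to DMSO and triple-drug controls, using the 48 h/24 h ratio of GFP-positive cells (R0). MT4-GFP cells pre-infected 24 h with HIV-1 H9IIIB at low MOI; compounds tested in 50% normal human serum, 0.4% DMSO; mean of ≥2 experiments.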
With COC(=O)N[C@H](C(=O)Nc1cccc(F)c1CCC1CNC2CCCS(=O)(=O)N1C2)[C@H](c1ccc(F)cc1)C1CC(F)(F)C1 (stereo partly drawn) [Example 65, methyl [(1S,2S)-2-(3,3-difluorocyclobutyl)-1-({2-[2-(2,2-dioxido-2-thia-1,7-diazabicyclo[4.3.1]dec-9-yl)ethyl]-3-fluorophenyl}carbamoyl)-2-(4-fluorophenyl)ethyl]carbamate] the EC50 was 47 nM.
In the case of Cn1nc(C(F)(F)F)cc1[C@H](c1ccc(Cl)c(F)c1)[C@H](N)C(=O)Nc1cncc(F)c1CC[C@H]1CN[C@@H]2CCCS(=O)(=O)N1C2 [Example 268, (βR)-4-chloro-N-(4-{2-[(6R,9S)-2,2-dioxido-2-thia-1,7-diazabicyclo[4.3.1]dec-9-yl]ethyl}-5-fluoropyridin-3-yl)-3-fluoro-β-[1-methyl-3-(trifluoromethyl)-1H-pyrazol-5-yl]-L-phenylalaninamide], the EC50 is reported as 18 nM.
In the case of CC1(C)CC([C@H](c2ccc(F)cc2)[C@H](N)C(=O)N[C@H]2CCC[C@@H]2CC[C@H]2CN[C@@H]3CCCS(=O)(=O)N2C3)CCO1 (stereo partly drawn) [Example 54, (βR)-β-(2,2-dimethyltetrahydro-2H-pyran-4-yl)-N-[(1S,2R)-2-{2-[(6R,9S)-2,2-dioxido-2-thia-1,7-diazabicyclo[4.3.1]dec-9-yl]ethyl}cyclopentyl]-4-fluoro-L-phenylalaninamide], the EC50 is reported as 180 nM.
For COC(=O)N[C@H](C(=O)Nc1c(F)ccc(F)c1CC[C@H]1CN[C@@H]2CCCS(=O)(=O)N1C2)[C@@H](c1ccc(Cl)cc1)[C@H]1CCOC(C)(C)C1 [Example 200, methyl {(1S,2R)-2-(4-chlorophenyl)-2-[(4S)-2,2-dimethyltetrahydro-2H-pyran-4-yl]-1-[(2-{2-[(6R,9S)-2,2-dioxido-2-thia-1,7-diazabicyclo[4.3.1]dec-9-yl]ethyl}-3,6-difluorophenyl)carbamoyl]ethyl}carbamate], the EC50 was 35 nM.
Work on CC1(OC(=O)N2CCC([C@H](c3ccc(Cl)cc3)[C@H](N)C(=O)N[C@H]3CCC[C@@H]3CC[C@H]3CN[C@@H]4CCCS(=O)(=O)N3C4)CC2)CC1 [Example 208, 1-methylcyclopropyl 4-[(1R,2S)-2-amino-1-(4-chlorophenyl)-3-{[(1S,2R)-2-{2-[(6R,9S)-2,2-dioxido-2-thia-1,7-diazabicyclo[4.3.1]dec-9-yl]ethyl}cyclopentyl]amino}-3-oxopropyl]piperidine-1-carboxylate] yielded an EC50 of 100 nM.
Work on COC(=O)N[C@H](C(=O)N[C@H]1CCCC[C@@H]1CC[C@H]1CN[C@@H]2CCCS(=O)(=O)N1C2)[C@@H](c1ccc(Cl)cc1)c1cc(F)cc(F)c1 [Example 100, methyl [(1S,2S)-2-(4-chlorophenyl)-2-(3,5-difluorophenyl)-1-{[(1S,2R)-2-{2-[(6R,9S)-2,2-dioxido-2-thia-1,7-diazabicyclo[4.3.1]dec-9-yl]ethyl}cyclohexyl]carbamoyl}ethyl]carbamate] yielded an EC50 of 24 nM.
COC(=O)N[C@H](C(=O)Nc1cncc(F)c1CC[C@H]1CN[C@@H]2CCCS(=O)(=O)N1C2)[C@@H](c1ccc(Cl)cc1)[C@H]1CC[C@H](C(F)(F)F)CC1 [Example 256, methyl {(1S,2R)-2-(4-chlorophenyl)-1-[(4-{2-[(6R,9S)-2,2-dioxido-2-thia-1,7-diazabicyclo[4.3.1]dec-9-yl]ethyl}-5-fluoropyridin-3-yl)carbamoyl]-2-[(1r,4R)-4-(trifluoromethyl)cyclohexyl]ethyl}carbamate] showed an EC50 of 8.2 nM.
C[C@@H]1C[C@H]([C@H](c2ccc(Cl)cc2)[C@H](N)C(=O)Nc2cncc(F)c2CC[C@H]2CN[C@@H]3CCCS(=O)(=O)N2C3)C[C@H](C)O1 [Example 31, (2S,3R)-2-Amino-3-(4-chlorophenyl)-3-((2R,4r,6S)-2,6-dimethyltetrahydro-2H-pyran-4-yl)-N-(4-(2-((6R,9S)-2,2-dioxido-2-thia-1,7-diazabicyclo[4.3.1]decan-9-yl)ethyl)-5-fluoropyridin-3-yl)propanamide] was tested, and the EC50 was 6.3 nM.
COC(=O)N[C@H](C(=O)Nc1c(F)ccc(F)c1CC[C@H]1CN[C@@H]2CCCS(=O)(=O)N1C2)[C@@H](c1ccc(F)cc1)[C@H]1C[C@@H](C)O[C@@H](C)C1 [Example 147, methyl [(1S,2R)-2-[(2R,4r,6S)-2,6-dimethyltetrahydro-2H-pyran-4-yl]-1-[(2-{2-[(6R,9S)-2,2-dioxido-2-thia-1,7-diazabicyclo[4.3.1]dec-9-yl]ethyl}-3,6-difluorophenyl)carbamoyl]-2-(4-fluorophenyl)ethyl]carbamate] was tested, and the EC50 was 22 nM.
COC(=O)N[C@H](C(=O)Nc1cccc(F)c1CCC1CNC2CCCS(=O)(=O)N1C2)[C@H](c1cncc(C(F)(F)F)c1)c1ccc(Cl)c(F)c1 (stereo partly drawn) [Example 19, Methyl {(1S,2S)-2-(4-chloro-3-fluorophenyl)-1-({2-[2-(2,2-dioxido-2-thia-1,7-diazabicyclo[4.3.1]dec-9-yl)ethyl]-3-fluorophenyl}carbamoyl)-2-[5-(trifluoromethyl)pyridin-3-yl]ethyl}carbamate] showed an EC50 of 5.2 nM.
With CC(C)Oc1ncc([C@H](c2ccc(Cl)cc2)[C@H](N)C(=O)Nc2cccc(F)c2CC[C@H]2CN[C@@H]3CCCS(=O)(=O)N2C3)cn1 [Example 247, (βS)-4-chloro-N-(2-{2-[(6R,9S)-2,2-dioxido-2-thia-1,7-diazabicyclo[4.3.1]dec-9-yl]ethyl}-3-fluorophenyl)-β-[2-(1-methylethoxy)pyrimidin-5-yl]-L-phenylalaninamide] the EC50 was 7.2 nM.
COC(=O)N[C@H](C(=O)Nc1cccc(F)c1CC[C@H]1CN[C@@H]2CCCS(=O)(=O)N1C2)[C@@H](c1ccc(Cl)c(F)c1)C1C[C@@H](C)O[C@@H](C)C1 (stereo partly drawn) [Example 16, Methyl {(1S,2R)-2-(4-chloro-3-fluorophenyl)-2-[(2R,6S)-2,6-dimethyltetrahydro-2H-pyran-4-yl]-1-[(2-{2-[(6R,9S)-2,2-dioxido-2-thia-1,7-diazabicyclo[4.3.1]dec-9-yl]ethyl}-3-fluorophenyl)carbamoyl]ethyl}carbamate] was tested, and the EC50 was 4.9 nM.
COC(=O)N[C@H](C(=O)Nc1cccc(C(F)(F)F)c1CC[C@H]1CN[C@@H]2CCCS(=O)(=O)N1C2)[C@@H](c1ccc(F)cc1)C1C[C@@H](C)O[C@@H](C)C1 (stereo partly drawn) [Example 203, methyl [(1S,2R)-2-[(2R,6S)-2,6-dimethyltetrahydro-2H-pyran-4-yl]-1-{[2-{2-[(6R,9S)-2,2-dioxido-2-thia-1,7-diazabicyclo[4.3.1]dec-9-yl]ethyl}-3-(trifluoromethyl)phenyl]carbamoyl}-2-(4-fluorophenyl)ethyl]carbamate] showed an EC50 of 150 nM.
Compound CCC(CC)[C@H](c1ccc(Cl)cc1)[C@H](N)C(=O)Nc1cccc(F)c1CCC1CNC2CCCS(=O)(=O)N1C2 (stereo partly drawn) [Example 70, (βR)-4-chloro-N-{2-[2-(2,2-dioxido-2-thia-1,7-diazabicyclo[4.3.1]dec-9-yl)ethyl]-3-fluorophenyl}-β-(1-ethylpropyl)-L-phenylalaninamide] has an EC50 of 49 nM.
O=C(C[C@@H](c1ccc(Cl)c(F)c1)N1CCOCC1)N[C@H]1CCC[C@@H]1CC[C@H]1CN[C@@H]2CCCS(=O)(=O)N1C2 [Example 75, (3S)-3-(4-chloro-3-fluorophenyl)-N-[(1S,2R)-2-{2-[(6R,9S)-2,2-dioxido-2-thia-1,7-diazabicyclo[4.3.1]dec-9-yl]ethyl}cyclopentyl]-3-morpholin-4-ylpropanamide] showed an EC50 of 110 nM.
For COC(=O)N[C@H](C(=O)Nc1cccc(F)c1CCC1CNC2CCCS(=O)(=O)N1C2)[C@@H](c1ccc(Cl)cc1)C1CCOCC1 (stereo partly drawn) [Example 37, methyl [(1S,2R)-2-(4-chlorophenyl)-1-({2-[2-(2,2-dioxido-2-thia-1,7-diazabicyclo[4.3.1]dec-9-yl)ethyl]-3-fluorophenyl}carbamoyl)-2-(tetrahydro-2H-pyran-4-yl)ethyl]carbamate], the EC50 was 13 nM.
In the case of CC[C@H](C)N[C@H](C(=O)N[C@H]1CCC[C@@H]1CC[C@H]1CN[C@@H]2CCCS(=O)(=O)N1C2)[C@@H](c1ccc(Cl)cc1)C1CCOC(C)(C)C1 (stereo partly drawn) [Example 183, (βR)-4-chloro-β-(2,2-dimethyltetrahydro-2H-pyran-4-yl)-N-[(1S,2R)-2-{2-[(6R,9S)-2,2-dioxido-2-thia-1,7-diazabicyclo[4.3.1]dec-9-yl]ethyl}cyclopentyl]-Nα-[(1S)-1-methylpropyl]-L-phenylalaninamide], the EC50 is reported as 1300 nM.
Work on CC1(C)CC([C@H](c2ccc(Cl)cc2)[C@H](N)C(=O)N[C@H]2CCC[C@@H]2CC[C@H]2CN[C@@H]3CCCS(=O)(=O)N2C3)CCO1 (stereo partly drawn) [Example 55, (βR)-4-chloro-β-(2,2-dimethyltetrahydro-2H-pyran-4-yl)-N-[(1S,2R)-2-{2-[(6R,9S)-2,2-dioxido-2-thia-1,7-diazabicyclo[4.3.1]dec-9-yl]ethyl}cyclopentyl]-L-phenylalaninamide] yielded an EC50 of 80 nM.
In the case of CCCN[C@H](C(=O)N[C@H]1CCC[C@@H]1CC[C@H]1CN[C@@H]2CCCS(=O)(=O)N1C2)[C@@H](c1ccc(Cl)cc1)C1CCOC(C)(C)C1 (stereo partly drawn) [Example 177, (βR)-4-chloro-β-(2,2-dimethyltetrahydro-2H-pyran-4-yl)-N-[(1S,2R)-2-{2-[(6R,9S)-2,2-dioxido-2-thia-1,7-diazabicyclo[4.3.1]dec-9-yl]ethyl}cyclopentyl]-Nα-propyl-L-phenylalaninamide], the EC50 is reported as 400 nM.
COC(=O)N[C@H](C(=O)Nc1cccc(F)c1CCC1CNC2CCCS(=O)(=O)N1C2)[C@@H](c1ccc(Cl)cc1)c1ccnc(C(F)(F)F)c1 (stereo partly drawn) [Example 18, Methyl {(1S,2S)-2-(4-chlorophenyl)-1-({2-[2-(2,2-dioxido-2-thia-1,7-diazabicyclo[4.3.1]dec-9-yl)ethyl]-3-fluorophenyl}carbamoyl)-2-[2-(trifluoromethyl)pyridin-4-yl]ethyl}carbamate] gave an EC50 of 8.7 nM.
